The procedure of the data set:
A sample of the compound of formula (Ia) in PLG gel was dissolved in aqueous acetonitrile and further diluted with water. The precipitated polymer was subsequently removed by filtration through a membrane filter. The concentration of the compound of formula (Ia) in the filtrate was determined by HPLC.

Where a SMILES comes first, the peptide text is derived from it.

As to `CCC[C@H](NC(=O)[C@@H](NC(=O)[C@H](NC(=O)[C@@H](NC(=O)CNC(=O)CN(C)C(C)=O)C(C)C)[C@H](C)CC)[C@@H](C)O)C(=O)N[C@H](C(=O)N[C@@H](CCCN=C(N)N)C(=O)N1CCC[C@H]1C(=O)NCC)[C@@H](C)CC` [compound of formula (Ia), N-Ac-Sar-Gly-Val-DIle-Thr-Nva-Ile-Arg-ProNHCH2CH3] (HELM PEPTIDE1{[ac].[Sar].G.V.[dI].T.[Nva].I.R.P.[CCN[*:1]]}$$$$V2.0), the “degradation found by HPLC” value was “no extensive degradation”.
